Laboratory results published in patent US11780812B2, “Oxopyridine derivatives useful as aminocarboxymuconate semialdehyde decarboxylase (ACMSD) inhibitors” (OrsoBio, Inc., priority 2016, dated 2023).

target: human ACMSD (Homo sapiens (Human), UniProt Q8TDX5); assay: Human ACMSD-1 inhibitor assay (coupled 3-HAO/ACMSD, absorbance at 360 nm); conditions: read-out: hACMSD IC50; human ACMSD 6 μg/ml, 50 mM MES pH 6.0, 28° C., four-parameter dose-response fit
Sequence (Q8TDX5 whole entry): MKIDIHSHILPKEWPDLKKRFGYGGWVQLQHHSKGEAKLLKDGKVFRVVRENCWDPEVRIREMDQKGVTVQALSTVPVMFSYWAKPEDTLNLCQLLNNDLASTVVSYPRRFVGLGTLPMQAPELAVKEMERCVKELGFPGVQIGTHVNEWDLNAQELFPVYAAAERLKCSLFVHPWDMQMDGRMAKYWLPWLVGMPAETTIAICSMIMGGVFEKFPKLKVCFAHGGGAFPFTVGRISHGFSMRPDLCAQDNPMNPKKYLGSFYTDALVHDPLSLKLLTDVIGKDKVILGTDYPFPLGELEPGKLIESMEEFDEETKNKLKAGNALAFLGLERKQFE

Structure (SMILES)	IC50 [nM]
COc1c(C(F)(F)F)c(C#N)c(SCC(=O)O)[nH]c1=O [Ex. 46, 2-(3-cyano-5-methoxy-6-oxo-4-(trifluoromethyl)-1,6-dihydropyridin-2-ylthio)acetic acid]	8
Cc1c(C(F)(F)F)c(C#N)c(SCc2nnn[nH]2)[nH]c1=O [Ex. 47, 2-(((1H-tetrazol-5-yl)methyl)thio)-5-methyl-6-oxo-4-(trifluoromethyl)-1,6-dihydropyridine-3-carbonitrile]	7
N#Cc1c(SCc2nnn[nH]2)[nH]c(=O)c(F)c1C(F)(F)F [Ex. 48, 2-((1H-tetrazol-5-yl)methylthio)-5-fluoro-6-oxo-4-(trifluoromethyl)-1,6-dihydropyridine-3-carbonitrile]	2
N#Cc1c(-c2ccsc2)cc(=O)[nH]c1SCc1cccc(-c2nnn[nH]2)c1 [Ex. 54, 2-(3-(1H-tetrazol-5-yl)benzylthio)-6-oxo-4-(thiophen-3-yl)-1,6-dihydropyridine-3-carbonitrile]	9
Cc1cc(=O)[nH]c(SCc2cccc(C(=O)O)c2)c1C#N [Ex. 56, 3-(((3-cyano-4-methyl-6-oxo-1,6-dihydropyridin-2-yl)thio)methyl)benzoic acid]	6750

Next, values leading:

IC50 [nM]	Structure (SMILES)
6	N#Cc1c(-c2cccs2)cc(=O)[nH]c1SCc1cccc(-c2nnn[nH]2)c1 [Ex. 49, 2-((3-(1H-tetrazol-5-yl)benzyl)thio)-6-oxo-4-(thiophen-2-yl)-1,6-dihydropyridine-3-carbonitrile]
3	N#Cc1c(-c2ccccc2)cc(=O)[nH]c1SCc1cccc(-c2nnn[nH]2)c1 [Ex. 50, 2-((3-(1H-tetrazol-5-yl)benzyl)thio)-6-oxo-4-phenyl-1,6-dihydropyridine-3-carbonitrile]
130	O=c1cc(C(F)(F)F)cc(SCc2nnn[nH]2)[nH]1 [Ex. 52, 6-((1H-tetrazol-5-yl)methylthio)-4-(trifluoromethyl)pyridin-2(1H)-one]
2	N#Cc1c(Cc2ccccc2)cc(=O)[nH]c1SCc1nn[nH]n1 [Ex. 53, 2-(((2H-tetrazol-5-yl)methyl)thio)-4-benzyl-6-oxo-1,6-dihydropyridine-3-carbonitrile]
3	Cc1cccc(-c2cc(=O)[nH]c(SCc3cccc(-c4nnn[nH]4)c3)c2C#N)c1 [Ex. 55, 2-((3-(1H-tetrazol-5-yl)benzyl)thio)-6-oxo-4-(m-tolyl)-1,6-dihydropyridine-3-carbonitrile]
2990	Cc1cc(=O)[nH]c(SCC(=O)O)c1C#N [reference compound]
